In patent publication US11617777B2, “Cytotoxic and anti-mitotic compounds, and methods of using the same” (ZYMEWORKS BC INC., priority 2013, dated 2023):
Where two headings read alike, the source gives them in different places.

Test system: Jurkat cells
Experiment: Cytotoxicity of compounds, CellTiter-Glo
Type: cell-based, Human
Settings: read-out: EC50
From the text: Cell lines used: Human T-cell leukemia cell line Jurkat (ATCC: TIB-152); HCC1954 (ATCC: CRL. 2338); Human Pancreatic cells lines: AsPC-1 (ATCC: CRL-1682), BxPC-3 (ATCC: CRL.1687), HPAF-II (ATCC: CRL.1997), MiaPaCa2 (ATCC: CRL.1420), PANC-1 (ATCC: CRL.1469), Capan-1 (ATCC: HTB-79), Capan-2 (ATCC: HTB-80) and the Human gastric carcinoma cell line NCI-N87 (ATCC: CRL. 5822); AML-193 (ATCC: CRL.9589), CCRF-CEM (ATCC: CCL-119), DU145 (ATCC: HTB-81), PC-3 (ATCC: CRL.1435), A-431 (ATCC: CRL.1555), HT-29 (ATCC: HTB-38), A-172 (ATCC: CRL.1620), NCI-H358 (ATCC: CRL.5807), A549 (ATCC: CCL-185), Colo-205 (ATCC: CCL-222), MDA-MB-231 (ATCC: HTB-26), OVCAR-3 (ATCC: HTB-161), OV-90 (ATCC: CRL.11732), OE19 (Sigma: 96071721), RT 112/84 (Sigma: 85061106).
On the day prior to adding compounds, HCC1954 AsPC-1, BxPC-3, HPAF-II, MiaPaCa2, PANC-1, Capan-1, Capan-2 and NCI-N87 cells were added to opaque-walled 96-well tissue culture-treated microtiter plates using complete growth medium at a density of 2500 cells/100 microlitre (uL) of medium. These adherant cell lines cells were incubated for one night at 37° C./5% CO2 to allow the cells to attach to the microtiter plate surface. On the day that compounds were added, Jurkat cells are added to separate 96-well microtiter plates at 2500 cells/100 uL using the same growth medium as HCC1954. Compound were first serially diluted using dimethyl sulfoxide, and then the prepared dilutions are added to complete growth medium at five-times the final concentration—compounds were then titrated 1:3, eight steps. A control with no compound (growth medium alone) was included on each microtiter plate in sextuplicate. The prepared compounds titrations were added (twenty-five uL/well) in triplicate. The cells and compound titrations were incubated at 37° C./5% CO2 for three nights. After the incubation, cell viability is measured using CellTiter-Glo® reagent by adding thirty uL of prepared CellTiter-Glo® to each assay well. The assay is incubated for at least twenty minutes in the dark prior to measuring emitted luminescence using a microplate luminometer (500 ms integration time). The collected relative luminescence units (RLU) are converted to % cytotoxicity using the Growth medium alone control mentioned above (% Cytotoxicity=1−[Well RLU/average medium alone control RLU]).
GraphPad Prism was used for generation of EC50 values using three parameter non-linear regression curve fitting.

[1] = Homo sapiens, Jurkat, Table 3, Cytotoxicity of Compounds on Jurkat Cells
[2] = Homo sapiens, Jurkat, Table 6, Compound Cytotoxicity on Jurkat
[3] = Homo sapiens, Jurkat, Table 7, Cytotoxicity on Jurkat

| SMILES | EC50 [1] [nM] | EC50 [2] [nM] | further results |
| --- | --- | --- | --- |
| CN[C@H](C(=O)N[C@H](C(=O)N(C)[C@H](/C=C(\C)C(=O)NS(=O)(=O)Cc1ccccc1[N+](=O)[O-])C(C)C)C(C)(C)C)C(C)(C)c1ccccc1 [Compound 72, (S,E)-2,5-dimethyl-N-(2-nitrobenzylsulfonyl)-4-((S)—N,3,3-trimethyl-2-((S)-3-methyl-2-(methylamino)-3-phenylbutanamido)butanamido)hex-2-enamide] |  |  | EC50 (Table 6, Compound Cytotoxicity on Jurkat): 0.531 nM |
| CN[C@H](C(=O)N[C@H](C(=O)N(C)[C@H](/C=C(\C)C(=O)NS(=O)(=O)c1cc(C(=O)OC)ccc1Cl)C(C)C)C(C)(C)C)C(C)(C)c1ccccc1 [Compound 74, methyl 4-chloro-3-(N—((S,E)-2,5-dimethyl-4-((S)—N,3,3-trimethyl-2-((S)-3-methyl-2-(methylamino)-3-phenylbutanamido)butanamido)hex-2-enoyl)sulfamoyl)benzoate] | 0.087 |  |  |
| CN[C@H](C(=O)N[C@H](C(=O)N(C)[C@H](/C=C(\C)C(=O)NS(=O)(=O)Cc1ccc(C2(NC(=O)C(F)(F)F)CC2)cc1)C(C)C)C(C)(C)C)C(C)(C)c1ccccc1 [Compound 57, (S,E)-2,5-dimethyl-N-(4-(1-(2,2,2-trifluoroacetamido)cyclopropyl)benzylsulfonyl)-4-((S)—N,3,3-trimethyl-2-((S)-3-methyl-2-(methylamino)-3-phenylbutanamido)butanamido)hex-2-enamide] | 0.566 |  |  |
| CN[C@H](C(=O)N[C@H](C(=O)N(C)[C@H](/C=C(\C)C(=O)NS(=O)(=O)c1ccc(CNC(=O)C(F)(F)F)cc1)C(C)C)C(C)(C)C)C(C)(C)c1ccccc1 [Compound 84, (S,E)-2,5-dimethyl-N-(4-((2,2,2-trifluoroacetamido)methyl)phenylsulfonyl)-4-((S)—N,3,3-trimethyl-2-((S)-3-methyl-2-(methylamino)-3-phenylbutanamido)butanamido)hex-2-enamide] | 1.39 |  |  |
| CN[C@H](C(=O)N[C@H](C(=O)N(C)[C@H](/C=C(\C)C(=O)NS(=O)(=O)Cc1ccccc1C)C(C)C)C(C)(C)C)C(C)(C)c1ccccc1 [Compound 64, (S,E)-2,5-dimethyl-N-(2-methylbenzylsulfonyl)-4-((S)—N,3,3-trimethyl-2-((S)-3-methyl-2-(methylamino)-3-phenylbutanamido)butanamido)hex-2-enamide] |  | 0.138 |  |
| CN[C@H](C(=O)N[C@H](C(=O)N(C)[C@H](/C=C(\C)C(=O)NS(=O)(=O)Cc1ccccc1)C(C)C)C(C)(C)C)C(C)(C)c1ccc(OC)cc1 [Compound 91, (S,E)-N-(benzylsulfonyl)-4-((S)-2-((S)-3-(4-methoxyphenyl)-3-methyl-2-(methylamino)butanamido)-N,3,3-trimethylbutanamido)-2,5-dimethylhex-2-enamide] |  | 0.109 |  |
| CN[C@H](C(=O)N[C@H](C(=O)N(C)[C@H](/C=C(\C)C(=O)NS(=O)(=O)c1ccc(N)c(C(F)(F)F)c1)C(C)C)C(C)(C)C)C(C)(C)c1ccccc1 [Compound 114, (S,E)-N-(4-amino-3-(trifluoromethyl)phenylsulfonyl)-2,5-di methyl-4-((S)—N,3,3-trimethyl-2-((S)-3-methyl-2-(methylamino)-3-phenylbutanamido)butanamido)hex-2-enamide] |  | 0.056 | EC50 [3]: 0.056 nM |
| CN[C@H](C(=O)N[C@H](C(=O)N(C)[C@H](/C=C(\C)C(=O)NS(=O)(=O)CC1CCCC1)C(C)C)C(C)(C)C)C(C)(C)c1ccccc1 [Compound 35, (S,E)-N-(cyclopentylmethylsulfonyl)-2,5-dimethyl-4-((S)—N,3,3-trimethyl-2-((S)-3-methyl-2-(methylamino)-3-phenylbutanamido)butanamido)hex-2-enamide] |  | 0.832 |  |
| CCCCC(C)S(=O)(=O)NC(=O)/C(C)=C/[C@H](C(C)C)N(C)C(=O)[C@@H](NC(=O)[C@@H](NC)C(C)(C)c1ccccc1)C(C)(C)C (stereo partly drawn) [Compound 33, (4S,E)-N-(hexan-2-ylsulfonyl)-2,5-dimethyl-4-((S)—N,3,3-trimethyl-2-((S)-3-methyl-2-(methylamino)-3-phenylbutanamido)butanamido)hex-2-enamide] |  | 0.636 |  |
| CN[C@H](C(=O)N[C@H](C(=O)N(C)[C@H](/C=C(\C)C(=O)NS(=O)(=O)NCc1ccccc1C(F)(F)F)C(C)C)C(C)(C)C)C(C)(C)c1ccccc1 [Compound 32, (S,E)-2,5-dimethyl-N—(N-(2-(trifluoromethyl)benzyl)sulfamoyl)-4-((S)—N,3,3-trimethyl-2-((S)-3-methyl-2-(methylamino)-3-phenylbutanamido)butanamido)hex-2-enamide] | 0.265 |  |  |
| CN[C@H](C(=O)N[C@H](C(=O)N(C)[C@H](/C=C(\C)C(=O)NS(=O)(=O)CCOC)C(C)C)C(C)(C)C)C(C)(C)c1ccccc1 [Compound 34, (S,E)-N-(2-methoxyethylsulfonyl)-2,5-dimethyl-4-((S)—N,3,3-trimethyl-2-((S)-3-methyl-2-(methylamino)-3-phenylbutanamido)butanamido)hex-2-enamide] | 0.2 |  |  |
| CN[C@H](C(=O)N[C@H](C(=O)N(C)[C@H](/C=C(\C)C(=O)NS(=O)(=O)Cc1ccccc1)C(C)C)C(C)(C)C)C(C)(C)c1ccc(OCCN)cc1 [Compound 96, (S,E)-4-((S)-2-((S)-3-(4-(2-aminoethoxy)phenyl)-3-methyl-2-(methylamino)butanamido)-N,3,3-trimethylbutanamido)-N-(benzylsulfonyl)-2,5-dimethylhex-2-enamide] |  | 10.3 |  |
| CN[C@H](C(=O)N[C@H](C(=O)N(C)[C@H](/C=C(\C)C(=O)NS(=O)(=O)c1ccc(N)c2c1CCCC2)C(C)C)C(C)(C)C)C(C)(C)c1ccccc1 [Compound 110, (S,E)-N-(4-amino-5,6,7,8-tetrahydronaphthalen-1-ylsulfonyl)-2,5-dimethyl-4-((S)—N,3,3-trimethyl-2-((S)-3-methyl-2-(methylamino)-3-phenylbutanamido)butanamido)hex-2-enamide] |  | 0.031 | EC50 [3]: 0.031 nM |
| CN[C@H](C(=O)N[C@H](C(=O)N(C)[C@H](/C=C(\C)C(=O)NS(=O)(=O)c1ccc(N)c(C)c1)C(C)C)C(C)(C)C)C(C)(C)c1ccccc1 [Compound 111, (S,E)-N-(4-amino-3-methylphenylsulfonyl)-2,5-dimethyl-4-((S)—N,3,3-trimethyl-2-((S)-3-methyl-2-(methylamino)-3-phenylbutanamido)butanamido)hex-2-enamide] |  | ~0.118 | EC50 [3]: 0.12 nM |
| CN[C@H](C(=O)N[C@H](C(=O)N(C)[C@H](/C=C(\C)C(=O)NS(=O)(=O)Cc1ccc(C2(N)CC2)cc1)C(C)C)C(C)(C)C)C(C)(C)c1ccccc1 [Compound 58, (S,E)-N-(4-(1-aminocyclopropyl)benzylsulfonyl)-2,5-dimethyl-4-((S)—N,3,3-trimethyl-2-((S)-3-methyl-2-(methylamino)-3-phenylbutanamido)butanamido) hex-2-enamide] | 0.816 |  |  |
| CN[C@H](C(=O)N[C@H](C(=O)N(C)[C@H](/C=C(\C)C(=O)NS(=O)(=O)C1CCCCC1)C(C)C)C(C)(C)C)C(C)(C)c1ccccc1 [Compound 44, (S,E)-N-(cyclohexylsulfonyl)-2,5-dimethyl-4-((S)—N,3,3-trimethyl-2-((S)-3-methyl-2-(methylamino)-3-phenylbutanamido)butanamido)hex-2-enamide] | 0.114 | 1.48 |  |
| CN[C@H](C(=O)N[C@H](C(=O)N(C)[C@H](/C=C(\C)C(=O)NS(=O)(=O)N1CCCCC1)C(C)C)C(C)(C)C)C(C)(C)c1ccccc1 [Compound 27, (S,E)-2,5-dimethyl-N-(piperidin-1-ylsulfonyl)-4-((S)—N,3,3-trimethyl-2-((S)-3-methyl-2-(methylamino)-3-phenylbutanamido)butanamido)hex-2-enamide] | 0.157 |  |  |
| CN[C@H](C(=O)N[C@H](C(=O)N1CCCCC1C=C(C)C(=O)NS(=O)(=O)c1ccc(CS)cc1)C(C)(C)C)C(C)(C)c1ccccc1 (mixture of isomers) [Compound 118, (S)—N—((S)-1-(2-(3-(4-(mercaptomethyl)phenylsulfonamido)-2-methyl-3-oxoprop-1-enyl)piperidin-1-yl)-3,3-dimethyl-1-oxobutan-2-yl)-3-methyl-2-(methylamino)-3-phenylbutanamide] | 13 |  |  |
